Converted amounts (≈) assume the structure as drawn.
Assays:
Tagia sp. = settings: acute; duration: 14 days; mortality
Oncorhynchus mykiss = settings: acute; duration: 96 hours; mortality
Bibionidae = settings: chronic/long-term, duration: 28 days
Daphnia magna = settings: chronic/long-term; duration: 21 days; reproduction
Apis mellifera = settings: acute, mortality
Aphidius rhopalosiphi = settings: acute; duration: 7 days; mortality
Pimephales promelas = settings: chronic/long-term; duration: 35 days; growth

CCCN(CCC)c1c([N+](=O)[O-])cc(C(F)(F)F)cc1[N+](=O)[O-] [Trifluralin]
LC50 (Colinus virginianus; acute, oral, diet, mortality): 574 mg/kg-day | LD50 (Colinus virginianus; acute, oral, mortality): > 2250 mg/kg | NOEC (Colinus virginianus; reproduction developmental): 103 mg/kg-day | LC50 (Tagia sp.): > 1000 mg/kg | LC50 (Oncorhynchus mykiss): 0.088 mg/L (≈ 0.262 µM) | NOEC (Bibionidae; development): 0.25 mg/L | NOEC (Bibionidae; mortality): 810 mg/kg | NOEC (Daphnia magna): 0.0507 mg/L | LD50 (Rattus norvegicus; acute, oral, mortality): > 5000 mg/kg | LOAEL (Rattus norvegicus; chronic, duration: 2 years, Fischer 344, histopathology: neoplastic): 30 mg/kg-day | NOAEL (Rattus norvegicus; reproduction developmental, reproduction): 148 mg/kg-day | NOAEL (Rattus norvegicus; subchronic, duration: 90 days, oral): 2.6 mg/kg-day | LD50 (Apis mellifera; duration: 48 hours, dermal): > 100 µg/piece | LD50 (Apis mellifera; oral, unspecified): > 80 µg/piece | LEL (Aphidius rhopalosiphi): 1200 g/ha | NOEC (Pimephales promelas): 0.0003 mg/L

From EPA's ToxValDB 9.5 (doi:10.2903/j.efsa.2009.327r)
